Entries after “also recorded” stand apart in the source; their conditions may differ.
How the values were obtained:
ob/ob mice = test: Liver histology and liver/serum triglyceride concentrations in ob/ob mice; assay type: in vivo, mouse; conditions: GSNO-injected vs PBS-injected ob/ob mice
Source text: Formalin-fixed liver sections were stained with Trichrome Stain Kit (Sigma) according to the manufacturer's instructions. Triglycerides were extracted from liver according to the Folch method (Folch et al. (1957) J. Biol. Chem., 226:497-509). Serum and liver triglyceride concentrations were quantified with a triglyceride quantification kit following the manufacturer's instructions (Abcam). Leptin-deficient mice develop liver steatosis spontaneously under normal chow diet starting at 4 to 5 weeks of life that is characterized by a diminished rate of palmitate oxidation and accumulation of fat droplets in the form of triglycerides within the hepatocytes (Brix et al. (2002) Mol. Genet. Metab., 75:219-226; de Oliveira et al. (2008) J. Am. Coll. Nutr., 27:299-305). […] This significant reduction in the rate of palmitoyl-CoA oxidation indicated a deficiency in mitochondrial β-oxidation of fatty acids. […] GSNO was used to deliver nitric oxide equivalents because of the extensive use of this pharmacological agent in cellular models to modify proteins by S-nitrosylation […] cellular permeability (Hara et al. (2005) Nat. Cell Biol., 7:665-674; Chung et al. (2004) Science 304:1328-1331). […] Moreover, the restoration of palmitoyl-CoA oxidation in GSNO-injected ob/ob mice was associated with a significant reduction of the concentration of liver triglycerides. […]

VLCAD [1] = biological target: T1, VLCAD (Mus musculus, UniProt P50544)
T1 sequence (P50544 42-656): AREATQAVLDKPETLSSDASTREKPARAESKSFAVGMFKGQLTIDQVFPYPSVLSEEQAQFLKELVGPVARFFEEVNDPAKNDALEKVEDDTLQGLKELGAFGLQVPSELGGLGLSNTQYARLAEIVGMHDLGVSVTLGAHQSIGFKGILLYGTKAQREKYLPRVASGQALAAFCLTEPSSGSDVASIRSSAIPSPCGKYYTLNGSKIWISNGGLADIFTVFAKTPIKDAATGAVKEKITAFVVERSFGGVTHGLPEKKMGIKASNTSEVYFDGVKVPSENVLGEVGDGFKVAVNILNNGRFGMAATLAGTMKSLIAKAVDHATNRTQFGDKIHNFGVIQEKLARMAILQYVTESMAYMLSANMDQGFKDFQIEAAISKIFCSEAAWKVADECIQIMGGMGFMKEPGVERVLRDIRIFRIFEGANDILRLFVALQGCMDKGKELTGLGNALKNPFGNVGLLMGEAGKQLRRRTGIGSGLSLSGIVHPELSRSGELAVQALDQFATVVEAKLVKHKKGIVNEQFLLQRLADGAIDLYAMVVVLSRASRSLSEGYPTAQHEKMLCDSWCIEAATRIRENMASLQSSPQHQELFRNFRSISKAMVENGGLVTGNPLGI

VLCAD [2] = biological target: T1, VLCAD; test: VLCAD activity assay (ferricenium) in liver homogenates from injected ob/ob mice

With N[C@@H](CCC(=O)N[C@@H](CSN=O)C(=O)NCC(=O)O)C(=O)O [GSNO, S-nitrosoglutathione] the “fat deposits in liver slices (trichrome histology)” value (ob/ob mice) was “diminished fatty acid deposition; also recorded: fewer fat deposits”, the “VLCAD specific activity of untreated eNOS-/- relative to eNOS-/- liver tissue treated with GSNO” value (VLCAD [1]; 5 μM GSNO 30 minutes prior to the assay, 0.25 mM palmitoyl-CoA) was “significantly lower” and the “KM for VLCAD enzymatic activity, treated vs untreated homogenate” value (VLCAD [1]; eNOS-/- liver homogenates treated ex vivo with GSNO) was “increased five-fold”. For the same molecule, the “S-nitrosylation of VLCAD at Cys238 ex vivo” value (VLCAD [1]; eNOS-/- liver homogenates treated with GSNO) was “readily modified”, the “acyl dehydrogenase-mediated oxidation of palmitoyl-CoA” value (VLCAD [2]; GSNO-treated ob/ob mouse liver) was “increase” and the “apparent KM in PBS-injected ob/ob homogenates relative to wild-type and GSNO-injected ob/ob mice” value (VLCAD [2]; liver homogenates) was “more than fivefold higher”.

From patent US10434079B2, “Compositions and methods for the treatment of fatty acid metabolism disorders” (The Children's Hospital of Philadelphia, priority 2013, dated 2019)
